In patent publication US12559474B2, “Triazine derivatives having virus replication inhibitory activity and pharmaceutical composition comprising the same” (priority 2021, dated 2026):
Where “and” joins values, the source holds several entries; their conditions need not be identical. Equal entries are not always repeated.

The compounds below were run against SARS-CoV-2 3CL protease (Severe acute respiratory syndrome coronavirus 2, UniProt P0DTD1) (assay: biochemical). Conditions: 50% SARS-CoV-2 3CL protease inhibitory concentration, given as class symbols; read-out: IC50.
In the case of Cn1cnc(Cn2c(=O)nc(Nc3cc4cn(CC5(N)CC5)nc4cc3Cl)n(Cc3cc(Cl)c(F)cc3F)c2=O)n1 [II-0557], the IC50 is reported as < 100 nM.

Same assay, conditions: IC50
In the case of COc1ccc(Nc2nc(=O)n(Cc3cc(C)on3)c(=O)n2Cc2cc(F)c(F)c(F)c2)cc1 [Compound I-0334], the IC50 is reported as 870 nM and 100 to 1000 nM. For Cn1cnc(Cn2c(=O)nc(Nc3cc4cn(C)nc4cc3Cl)n(CC3CCCCC3)c2=O)n1 [II-0606], the IC50 was 100 to 1000 nM. For Cn1cnc(Cn2c(=O)cc(Nc3cc4cn(CC(F)F)nc4cc3Cl)n(Cc3ccc(F)c(C#N)c3)c2=O)n1 [II-0432], the IC50 was < 100 nM. In the case of Cc1nc2cc(Cl)c(Nc3nc(=O)n(Cc4c[nH]c(=O)[nH]c4=O)c(=O)n3Cc3cc(F)c(F)c(F)c3)cc2n1C [Compound I-0407], the IC50 is reported as < 100 nM. O=c1[nH]cccc1Cn1c(=O)nc(Nc2ccc(F)cc2Cl)n(Cc2cc(F)c(F)c(F)c2)c1=O [Compound I-0001] was tested, and the IC50 was 100 to 1000 nM. With COC(=O)Cn1cnc(Cn2c(=O)nc(Nc3ccc(OC)cc3)n(Cc3cc(F)c(F)c(F)c3)c2=O)c1 [Compound I-0414] the IC50 was 250 nM and 100 to 1000 nM. COc1ccc(Nc2nc(=O)n(Cc3ccc[nH]c3=O)c(=O)n2C2CCCc3cc(F)c(F)cc32)cc1 (racemic) [Compound I-0257] showed an IC50 of 2900 nM. With COc1ccc(Nc2nc(=O)n(Cc3cc(-c4cnn(C)c4)c[nH]c3=O)c(=O)n2Cc2cc(F)c(F)c(F)c2)cc1 [Compound I-0259] the IC50 was < 100 nM. For Cc1nc2cc(Cl)c(Nc3nc(=O)n(Cc4ccc[nH]c4=O)c(=O)n3Cc3cc(F)c(F)c(F)c3)cc2n1C [Compound I-0439], the IC50 was < 100 nM. COc1ccc(Nc2nc(=O)n(CC3(C)COC3)c(=O)n2Cc2cc(F)c(F)c(F)c2)cc1 [II-0274] showed an IC50 of 3000 nM. With COc1ccc(Nc2nc(=O)n(Cc3cc(C(=O)NCCN(C)C)c[nH]c3=O)c(=O)n2Cc2cc(F)c(F)c(F)c2)cc1 [Compound I-0092] the IC50 was < 100 nM. For Cn1nnc2cc(Cl)c(Nc3nc(=O)n(Cc4ccc[nH]c4=O)c(=O)n3Cc3cc(F)c(F)c(F)c3)cc21 [Compound I-0440], the IC50 was < 100 nM. Cn1cnc(Cn2c(=O)cc(Nc3cc4cn(C)nc4cc3Cl)n(Cc3ccc(F)c(C#N)c3)c2=O)n1 [II-0379] was tested, and the IC50 was < 100 nM. With Cc1cncc(-n2c(=O)nc(Nc3ccc(N=S4(=O)CCCC4)cc3F)n(Cc3cc(Cl)ccc3C)c2=O)c1 [II-0616] the IC50 was < 100 nM. For Cn1cc2cc(Nc3nc(=O)n(Cc4cc(C(=O)NC5CC5)c[nH]c4=O)c(=O)n3Cc3cc(F)c(F)c(F)c3)c(Cl)cc2n1 [Compound I-0333], the IC50 was < 100 nM. CN(C)C(=O)CCn1cc2cc(Nc3nc(=O)n(Cc4ncn(C)n4)c(=O)n3Cc3cc(F)c(F)c(Cl)c3)c(Cl)cc2n1 [II-0561] was tested, and the IC50 was < 100 nM. In the case of COc1ccc(Nc2nc(=O)n(Cc3cn(CC(N)=O)cn3)c(=O)n2Cc2cc(F)c(F)c(F)c2)cc1 [Compound I-0416], the IC50 is reported as 3500 nM and 1000 to 10000 nM. In the case of Cc1ccc(Cl)cc1Cn1c(NC23CC(Nc4ncccn4)(C2)C3)nc(=O)n(Cc2ccncc2C)c1=O [II-0630], the IC50 is reported as < 100 nM. For O=c1[nH]cccc1Cn1c(=O)nc(NC23CC(Nc4nc(Cl)cc(Cl)n4)(C2)C3)n(Cc2cc(F)c(F)c(F)c2)c1=O [II-0622], the IC50 was < 100 nM. O=c1[nH]cccc1Cn1c(=O)nc(NC23CC(Nc4ccccn4)(C2)C3)n(Cc2cc(F)c(F)c(F)c2)c1=O [II-0476] was tested, and the IC50 was < 100 nM. In the case of Cn1cnc(Cn2c(=O)nc(Nc3cc4cn(CC(=O)N5CCCC5)nc4cc3Cl)n(Cc3cc(F)c(F)c(Cl)c3)c2=O)n1 [II-0147], the IC50 is reported as < 100 nM. For COc1ccc(Nc2nc(=O)n(Cc3cc(-c4cccnc4)c[nH]c3=O)c(=O)n2Cc2cc(F)c(F)c(F)c2)cc1 [Compound I-0386], the IC50 was < 100 nM. For COc1ccc(Nc2nc(=O)n(Cc3cc(C(=O)NCc4ccn(C)n4)c[nH]c3=O)c(=O)n2Cc2cc(F)c(F)c(F)c2)cc1 [II-0325], the IC50 was < 100 nM. With Cn1cnc(Cn2c(=O)nc(Nc3cc4cn(C)nc4cc3Cl)n(Cc3cc(Cl)cc(F)c3Cl)c2=O)n1 [II-0640] the IC50 was < 100 nM. Compound CC(=O)Nc1ccc(C#N)cc1Cn1c(Nc2cc3cn(C)nc3cc2Cl)nc(=O)n(-c2cncc(C)c2)c1=O [II-0594] has an IC50 of 270 nM. Cn1cc2cc(Nc3nc(=O)n(Cc4ccc[nH]c4=O)c(=O)n3Cc3cc(F)c(F)c(F)c3)ccc2n1 [Compound I-0143] was tested, and the IC50 was < 100 nM. With Cc1cncc(-n2c(=O)nc(Nc3cc(C)c(N=S4(=O)CCCC4)cc3Cl)n(Cc3cc(Cl)ccc3C)c2=O)c1 [II-0623] the IC50 was < 100 nM. With CS(=O)(=O)Nc1ccc(Nc2nc(=O)n(Cc3ccc[nH]c3=O)c(=O)n2Cc2cc(F)c(F)c(F)c2)cc1 [Compound I-0151] the IC50 was 970 nM and 100 to 1000 nM. In the case of Cn1cnc(Cn2c(=O)nc(NC34CC(Nc5ncccn5)(C3)C4)n(Cc3cc(F)c(F)c(F)c3)c2=O)n1 [II-0474], the IC50 is reported as < 100 nM. For CC(=O)Nc1nc2cc(F)c(Nc3nc(=O)n(Cc4ncn(C)n4)c(=O)n3Cc3cc(F)c(F)c(Cl)c3)cc2s1 [II-0012], the IC50 was < 100 nM. Cc1nc2cc(Cl)c(Nc3nc(=O)n(Cc4cc(Cl)c[nH]c4=O)c(=O)n3Cc3cc(F)c(F)c(F)c3)cc2n1C [Compound I-0078] was tested, and the IC50 was < 100 nM. COc1ccc(Nc2nc(=O)n(Cc3cc(=O)[nH][nH]c3=O)c(=O)n2Cc2cc(F)c(F)c(F)c2)cc1 [Compound I-0102] was tested, and the IC50 was 850 nM and 100 to 1000 nM. O=c1cc(Cl)c(Nc2nc(=O)n(Cc3ccc[nH]c3=O)c(=O)n2Cc2cc(F)c(F)c(F)c2)c[nH]1 [Compound I-0246] was tested, and the IC50 was < 100 nM. With Cc1nc2cc(Cl)c(Nc3nc(=O)n(Cc4ccc[nH]c4=O)c(=O)n3Cc3cc(F)c(F)cc3F)cc2n1C [Compound I-0006] the IC50 was < 100 nM. In the case of Cn1cnc(Cn2c(=O)nc(Nc3cc4cn(C)nc4cc3Cl)n(Cc3cccc4cccnc34)c2=O)n1 [II-0224], the IC50 is reported as 1900 nM. Cn1cnc(Cn2c(=O)nc(Nc3cc4cn(C)nc4cc3Cl)n(CC3CCCC3)c2=O)n1 [II-0605] showed an IC50 of 1000 to 10000 nM. For Cn1cnc(Cn2c(=O)nc(Nc3cc4cn(C5CCNCC5)nc4cc3Cl)n(Cc3cc(Cl)c(F)cc3F)c2=O)n1 [II-0532], the IC50 was < 100 nM. For CC(=O)Nc1nc2ccc(Nc3nc(=O)n(-c4cncc5ccccc45)c(=O)n3Cc3ccc(F)c(C#N)c3)cc2s1 [II-0170], the IC50 was < 100 nM. Cn1cnc(Cn2c(=O)nc(Nc3cc4cn(C)nc4cc3Cl)n(Cc3cc(Cl)ccc3O)c2=O)n1 [II-0428] gave an IC50 of 840 nM. CNc1nc2cc(F)c(Nc3nc(=O)n(-c4cncc(C)c4)c(=O)n3Cc3cc(F)c(F)c(Cl)c3)cc2s1 [II-0293] was tested, and the IC50 was < 100 nM. CC(=O)Nc1nc2ccc(Nc3nc(=O)n(Cc4ccc[nH]c4=O)c(=O)n3Cc3cc(F)c(F)c(F)c3)cc2s1 [Compound I-0458] was tested, and the IC50 was < 100 nM. With Cn1cnc(Cn2c(=O)nc(Nc3cc4cn(CC(=O)N5CCOCC5)nc4cc3Cl)n(Cc3cc(F)c(F)c(Cl)c3)c2=O)n1 [II-0139] the IC50 was < 100 nM. For CN(C)C(=O)Cn1cc2cc(Nc3nc(=O)n(Cc4ncn(C)n4)c(=O)n3Cc3cc(F)c(F)cc3F)c(Cl)cc2n1 [II-0280], the IC50 was < 100 nM. For O=c1[nH]cccc1Cn1c(=O)nc(NC23CC(Nc4ncc(C5CC5)cn4)(C2)C3)n(Cc2cc(F)c(F)c(F)c2)c1=O [II-0445], the IC50 was < 100 nM. With Cn1cnc(Cn2cc3cc(Nc4nc(=O)n(Cc5ncn(C)n5)c(=O)n4Cc4cc(F)c(F)c(Cl)c4)c(Cl)cc3n2)n1 [II-0004] the IC50 was < 100 nM. In the case of CCc1c(F)cc(Cl)cc1Cn1c(Nc2cc3cn(C)nc3cc2Cl)nc(=O)n(Cc2ncn(C)n2)c1=O [II-0639], the IC50 is reported as < 100 nM. In the case of Cc1cc(Oc2ccc(Nc3nc(=O)n(Cc4ccc[nH]c4=O)c(=O)n3Cc3cc(F)c(F)c(F)c3)cc2)no1 [Compound I-0048], the IC50 is reported as 440 nM and 100 to 1000 nM. For CC(=O)N1CC(n2cc3cc(Nc4nc(=O)n(Cc5ccc[nH]c5=O)c(=O)n4Cc4cc(F)c(F)c(F)c4)c(Cl)cc3n2)C1 [Compound I-0448], the IC50 was < 100 nM. With Cc1cncc(-n2c(=O)nc(Nc3ccc(N=S(C)(C)=O)cc3Cl)n(Cc3ccc(F)c(C#N)c3)c2=O)c1 [II-0575] the IC50 was < 100 nM. With Cn1cnc(Cn2c(=O)nc(Nc3cc4cn(CC(=O)N5CC(F)(F)C5)nc4cc3Cl)n(Cc3cc(Cl)c(F)cc3F)c2=O)n1 [II-0136] the IC50 was < 100 nM. In the case of Cc1cncc(-n2c(=O)nc(Nc3cc(Cl)c(N=S4(=O)CCCC4)cc3Cl)n(Cc3cc(Cl)ccc3C)c2=O)c1 [II-0619], the IC50 is reported as < 100 nM. Cn1cnc(Cn2c(=O)nc(Nc3cc4cn(CC(=O)N5CCCC5)nc4cc3Cl)n(Cc3cc(Cl)c(F)cc3F)c2=O)n1 [II-0138] was tested, and the IC50 was < 100 nM. With O=c1[nH]cccc1Cn1c(=O)nc(Nc2ccc(-c3cc[nH]n3)cc2)n(Cc2cc(F)c(F)c(F)c2)c1=O [Compound I-0154] the IC50 was 1300 nM and 1000 to 10000 nM. In the case of Cc1cncc(-n2c(=O)nc(Nc3ccc4nnn(C)c4c3)n(Cc3ccc(F)c(C#N)c3)c2=O)c1 [II-0357], the IC50 is reported as < 100 nM. In the case of Cn1cnc(Cn2c(=O)nc(Nc3cc4cn(CCN)nc4cc3Cl)n(Cc3cc(Cl)c(F)cc3F)c2=O)n1 [II-0530], the IC50 is reported as < 100 nM. In the case of CN(C(=O)Cn1cc2cc(Nc3nc(=O)n(Cc4ncn(C)n4)c(=O)n3Cc3cc(Cl)c(F)cc3F)c(Cl)cc2n1)C1CC1 [II-0146], the IC50 is reported as < 100 nM. With Cc1cncc(-n2c(=O)nc(Nc3cc(C)c(N=S(C)(C)=O)cc3Cl)n(Cc3cc(Cl)ccc3C)c2=O)c1 [II-0629] the IC50 was < 100 nM. With CN(C)C(=O)Cn1cc2cc(Nc3nc(=O)n(Cc4ncn(C)n4)c(=O)n3Cc3cc(Cl)c(F)cc3F)c(Cl)cc2n1 [II-0276] the IC50 was < 100 nM. COc1cc(OC)nc(NC23CC(Nc4nc(=O)n(CC5=CC=CNC5C)c(=O)n4Cc4cc(F)c(F)c(F)c4)(C2)C3)n1 (stereo not shown) [II-0626] was tested, and the IC50 was < 100 nM. Cc1cncc(-n2c(=O)nc(Nc3cc4c(cc3C)nc(C)n4C)n(Cc3ccc(F)c(C#N)c3)c2=O)c1 [II-0358] was tested, and the IC50 was < 100 nM. In the case of CCNC(=O)Cn1cc2cc(Nc3nc(=O)n(Cc4ncn(C)n4)c(=O)n3Cc3cc(F)c(F)c(Cl)c3)c(Cl)cc2n1 [II-0150], the IC50 is reported as < 100 nM. Work on Cn1cnc(Cn2c(=O)nc(Nc3cc4cn(C)nc4cc3Cl)n(CC3CCC(F)(F)CC3)c2=O)n1 [II-0607] yielded an IC50 of 100 to 1000 nM. Cc1nc2cc(Cl)c(Nc3nc(=O)n(Cc4ncn(C)n4)c(=O)n3Cc3cc(F)c(F)cc3F)cc2n1C [II-0019] was tested, and the IC50 was < 100 nM. COc1ccc(Nc2nc(=O)n(Cc3ccc(C(=O)N(C)C)[nH]c3=O)c(=O)n2Cc2cc(F)c(F)c(F)c2)cc1 [Compound I-0072] was tested, and the IC50 was < 100 nM. With O=c1[nH]cccc1Cn1c(=O)nc(NC23CC(Nc4ncc5ccccc5n4)(C2)C3)n(Cc2cc(F)c(F)c(F)c2)c1=O [II-0457] the IC50 was < 100 nM. With O=c1[nH]cccc1Cn1c(=O)nc(NC2CCc3[nH]ncc3C2)n(Cc2cc(F)c(F)c(F)c2)c1=O (racemic) [Compound I-0208] the IC50 was 230 nM and 100 to 1000 nM.
